Reference: patent publication US6258786A, “13-dihydro-3' aziridino anthracyclines” (Pharmacia & Upjohn S.p.A., priority 1998, dated 2001)

Tests used:
Format in all cases: cell-based
[1] = system: JURKAT; assay: In vitro cytotoxicity, growth inhibition by counting surviving cells, JURKAT; conditions: Homo sapiens, cells incubated with the compound for 1 h, at least two experiments, read-out: IC50 (50% inhibitory concentration), Mean ± SE
Method: (§1) 1. The results of in vivo test of Ia on disseminated P388/DX murine leukemia are shown in Tab.2.
(§2) ^1 Cells incubated with the compound for 1 h.
(§3) ^2 50% inhibitory concentration represents the mean ± SE from
(§4) dose-response curves of at least two experiments
(§5) ^3 Growth inhibition determined by counting surviving cells.

[2] = system: LoVo; assay: In vitro cytotoxicity, growth inhibition by SRB colorimetric assay, LoVo; conditions: Homo sapiens, cells incubated with the compound for 1 h, at least two experiments, read-out: IC50 (50% inhibitory concentration), Mean ± SE
Method: as §1, §2, §3, §4
^4 Growth inhibition determined by SRB colorimetric assay.

[3] = system: L1210; assay: In vitro cytotoxicity, growth inhibition by counting surviving cells, L1210; conditions: Mus musculus, cells incubated with the compound for 1 h, at least two experiments, read-out: IC50 (50% inhibitory concentration), Mean ± SE
Method: as §1, §2, §3, §4, §5

[4] = system: panel of murine and human tumor cell lines; assay: In vitro cytotoxicity on a panel of murine and human tumor cell lines
Source text: The compounds according to the invention are useful in methods of treatment of the human or animal body by therapy. They are useful as anti-tumor agents. They are useful in the treatment of leukemia and solid tumors, such as colon, colon-rectal, ovarian, mammary, prostate, lung, kidney and also melanoma tumors. A human can therefore be treated by a method comprising administering thereto a therapeutically effective amount of a compound of the invention. The condition of the human patient can thus be improved. The dosage to be given can be ascertained using known dosage ranges in the field of anthracyclines, modified by reference to the activity shown by the present compounds in in vitro and in vivo anti-tumor tests. Suitable dosages are generally in the range of 1 to 200 mg/m^2 body surface, preferably from 1 to 100 mg/m^2, depending on the nature and severity of the disease being treated and on the general condition of the patient. The compounds of formula I were tested and found active in vitro against a panel of murine and human tumor cell lines, and in vivo on disseminated P388/DX murine leukemia.
as §1

[5] = system: CEM; assay: In vitro cytotoxicity, growth inhibition by counting surviving cells, CEM; conditions: Homo sapiens, CCRF-CEM, cells incubated with the compound for 1 h, at least two experiments, read-out: IC50 (50% inhibitory concentration), Mean ± SE
Method: as §1, §2, §3, §4, §5

CC(O)[C@]1(O)Cc2c(O)c3c(c(O)c2[C@@H](O[C@H]2C[C@H](N4CC4)[C@H](OS(C)(=O)=O)[C@H](C)O2)C1)C(=O)c1ccccc1C3=O (mixture of isomers) [Ia, 13(R/S)-Dihydro-4-Demethoxy-3'-Deamino-3'-Aziridinyl-4'-Methansulfonyl Daunorubicin]
IC50 [1]: 4.87 ± 0.7 ng/mL
IC50 [2]: 20.3 ± 2 ng/mL
IC50 [3]: 3.76 ± 0.13 ng/mL
cytotoxicity / in vitro activity in words [4]: high cytotoxicity
IC50 [5]: 5.86 ± 0.4 ng/mL
